Square brackets hold non-standard residues; d marks the D form. Peptide text beside a SMILES is read from it. * marks the point of attachment. Sta = CC(C)C[C@H](N)[C@@H](O)CC(=O)O; Isovaleryl = CC(C)CC(=O)*
How the values were obtained:
HIV-1 protease = biological target: T1, HIV-1 protease (Human immunodeficiency virus type 1 group M subtype B, UniProt P04585); experiment: In vitro HIV protease inhibitory assay (fluorescently labeled substrate); assay type: biochemical; details: pH 5.5, one hour, room temperature
T1 construct: The protease (or proteinase) enzyme, consisting of only 99 amino acids
Protocol: The HIV protease screening assay is based on a fluorescently labeled substrate which can be resolved from nonlabeled cleavage product using avidin-polystyrene particles, 0.7-0.9 μm. The substrate is biotinylated at the amino terminal arginine and fluorescently labeled with fluorescein isothiocynate (FITC) at the carboxyl terminal lysine. This assay has been employed to detect novel, nonpeptidic inhibitors of HIV-1 protease. Substrate (20 μl of 0.2 μM), sample (10 μl of desired concentration), and enzyme (10 μl of 0.1 μM) are added to a 96 well pandex plate. The assay is run in 0.1 M sodium acetate buffer at pH 5.5 in the presence of 1.0 M sodium chloride and 0.05% NP-40 and incubated in the dark for one hour at room temperature. Avidin coated polystyrene beads (40 μl of 0.1% (w/v)) are added and the incubation is continued in the dark for an additional half hour. The labeled cleavage product is separated from the unreacted substrate via filtration and is read on the IDEXX Screen Machine. (IDEXX Corporation--Portland, Maine) The data are analyzed by appropriate computer algorithms to ascertain percent inhibition values.
The Activity Table showing the results of the HIV Protease Inhibitory Assay appears below in TABLE 1. The table has three columns, the left column provides the code number of the compound for easy cross reference to structure tables and detailed procedures, the middle column provides the concentration of test compound and the column on the right provides the percent inhibition.

HIV-I protease = details: Seelmeier et al.; cited from earlier work
[1] = test system: viral reverse transcriptase; details: cited from earlier work
[2] = HIV-1 Dose 3.3 (unit not given)
[3] = HIV-1 Dose 10.0 (unit not given)
[4] = HIV-1 Dose 30.0 (unit not given)

Row | SMILES | % Inhibition (HIV-1 protease; [2]) [%] | % Inhibition (HIV-1 protease; [3]) [%] | % Inhibition (HIV-1 protease; [4]) [%] | inhibitor of HIV-I protease (HIV-I protease) | inhibitor of viral reverse transcriptase [1]
1 | CC(=O)N1CCC2(CC1)OC(=O)C(C(c1cccc(NS(=O)(=O)c3ccc(C#N)cc3)c1)C1CC1)=C2O (centres unmarked) [CX-1] | 107.43 | 98.33 | 103.37 |  | 
2 | CCC1CCCCC12OC(=O)C(C(c1cccc(NS(=O)(=O)c3ccc(C#N)cc3)c1)C1CC1)=C2O (centres unmarked) [DX-3] | 117.26 | 110.16 | 113.83 |  | 
3 | CCC1CCCCC12OC(=O)C(C(c1cccc(NS(=O)(=O)c3ccc(C#N)cc3)c1)C1CC1)=C2O (centres unmarked) [DX-2] | 115.79 | 115.80 | 113.98 |  | 
4 | CC(C)CC(=O)N[C@H](C(=O)N[C@H](C(=O)N[C@@H](CC(C)C)[C@@H](O)CC(=O)N[C@@H](C)C(=O)N[C@@H](CC(C)C)[C@@H](O)CC(=O)O)C(C)C)C(C)C [Pepstatin A] (Isovaleryl-VV[Sta]A[Sta]-OH) |  |  |  | inhibitor of HIV-I protease | 
5 | CCCC1(CCC)OC(=O)C(C(c2cccc(NS(=O)(=O)c3cccnn3)c2)C2CC2)=C1O (centres unmarked) [DX-1] | 108.97 | 109.57 | 113.85 |  | 
6 | C=CCC1(CC=C)OC(=O)C(C(c2ccccc2)C2CC2)=C1O (centres unmarked) [DX-4] | 108.42 | 106.81 | 106.29 |  | 
7 | CN1CCC2(CC1)OC(=O)C(C(c1cccc(NS(=O)(=O)c3ccc(C#N)cc3)c1)C1CC1)=C2O (centres unmarked) [BX-5] | 61.58 | 85.22 | 98.54 |  | 
8 | CCN1CCC2(CC1)OC(=O)C(C(c1cccc(NS(=O)(=O)c3ccc(C#N)cc3)c1)C1CC1)=C2O (centres unmarked) [BX-4] | 71.3 | 94.47 | 101.07 |  | 
9 | N#Cc1ccc(S(=O)(=O)Nc2cccc(C(C3=C(O)C4(CCN(C(=O)OCC5c6ccccc6-c6ccccc65)CC4)OC3=O)C3CC3)c2)cc1 (centres unmarked) [BX-1] | 113.09 | 126.98 | 123.63 |  | 
10 | N#Cc1ccc(S(=O)(=O)Nc2cccc(C(C3=C(O)C4(CCN(C(=O)c5ccccc5)CC4)OC3=O)C3CC3)c2)cc1 (centres unmarked) [CX-2] | 107.56 | 109.04 | 110.58 |  | 
11 | CCCC1(CCC)OC(=O)C(C(c2cccc(N(C)S(=O)(=O)c3ccc(C#N)cc3)c2)C2CC2)=C1O (centres unmarked) [AX-1] | 103.5 | 111.53 | 102.32 |  | 
12 | N#Cc1ccc(S(=O)(=O)Nc2cccc(C(C3=C(O)C4(CCNCC4)OC3=O)C3CC3)c2)cc1 (centres unmarked) [BX-2] | 90.58 | 103.27 | 101.26 |  | 
13 | Cc1cn([C@H]2C[C@H](N=[N+]=[N-])[C@@H](CO)O2)c(=O)[nH]c1=O [AZT, 3-azido-3-deoxythymidine] |  |  |  |  | known inhibitor of viral reverse transcriptase
14 | N#Cc1ccc(S(=O)(=O)Nc2cccc(C(C3=C(O)C4(CCN(CC5c6ccccc6-c6ccccc65)CC4)OC3=O)C3CC3)c2)cc1 (centres unmarked) [BX-3] | 108.72 | 107 | 103.12 |  | 

From US6060600A, “Substituted tetronic acids useful for treating HIV and other retroviruses” (Pharmacia & Upjohn Company, priority 1997, dated 2000)
